# Values quoted from earlier work, collected in US9566312B2, “Cyclic peptides and use as medicines” (priority 2012, dated 2017).
# What was measured:
# hepatitis C virus = conditions: patients, 1200 mg twice daily; cited from earlier work
# HBV in HepG2215 cells = conditions: cited from earlier work
# HCV replicon = conditions: cited from earlier work
structure (smiles),measurement,setting,value
C/C=C/C[C@@H](C)[C@@H](O)[C@H]1C(=O)N[C@@H](CC)C(=O)N(C)[C@H](C)C(=O)N(CC)[C@@H](C(C)C)C(=O)N[C@@H](C(C)C)C(=O)N(C)[C@@H](CC(C)C)C(=O)N[C@@H](C)C(=O)N[C@H](C)C(=O)N(C)[C@@H](CC(C)C)C(=O)N(C)[C@@H](CC(C)C)C(=O)N(C)[C@@H](C(C)C)C(=O)N1C [DEBIO-025],mean hepatitis C load,hepatitis C virus,significantly decreased
C/C=C/C[C@@H](C)[C@@H](O)[C@H]1C(=O)N[C@@H](CC)C(=O)N(C)CC(=O)N(C)[C@@H]([C@@H](C)CC)C(=O)N[C@@H](C(C)C)C(=O)N(C)[C@@H](CC(C)C)C(=O)N[C@@H](C)C(=O)N[C@H](C)C(=O)N(C)[C@@H](CC(C)C)C(=O)N(C)[C@@H](CC(C)C)C(=O)N(C)[C@@H](C(C)C)C(=O)N1C [NIM811],reduction of HBsAg secretion from cells compared with controls,HBV in HepG2215 cells,about 50%
C=CC[C@@H]1/C=C(\C)C[C@H](C)C[C@H](OC)[C@H]2O[C@@](O)(C(=O)C(=O)N3CCCC[C@H]3C(=O)O[C@H](/C(C)=C/[C@@H]3CC[C@@H](O)[C@H](OC)C3)[C@H](C)[C@@H](O)CC1=O)[C@H](C)C[C@@H]2OC [FK506],effect on HCV replication,HCV replicon,did not have significant effect
